These are literature values, as cited in patent US20250000865A1, “COMPOUND FOR REDUCING URIC ACID LEVELS” (NEWSOARA BIOPHARMA CO., LTD., priority 2021, published 2025).

For this series the following is noted: cited from earlier work.

For the molecule `CCc1oc2ccccc2c1C(=O)c1cc(Br)c(O)c(Br)c1` [benbromarone, Benzbromarone], under “after long-term treatment”, the “sUA target level reached” value is recorded as < 6 mg/dL. In addition, under “in vivo”, the side effects entry was “hepatotoxicity and acute liver failure”.
